Test results reported in article PMC4744035, “In Vivo, In Vitro, and In Silico Characterization of Peptoids as Antimicrobial Agents” (PLoS ONE, 2016).
Converted amounts (≈) assume the structure as drawn. Numbered stars: 1 amine (or outer) side, 2 acyl side, 3 side chain; on linkers, the order of the positions; unused ones are H or OH. Square brackets hold non-standard residues; d marks the D form. Peptide text beside a SMILES is read from it. X1 = CC(C)[C@H](C)N(CC(=O)[*:2])[*:1]; Nspe = C[C@H](NCC(=O)O)c1ccccc1; Nlys = NCCCCNCC(=O)O

Columns and labels:
E. coli ATCC 35218 = format: cell-based
Procedure: MICs against B. subtilis and E. coli screening bacterial strains were determined using serial dilution in 96-well microtiter plates in accordance with CLSI M7-A6 protocols. Briefly, peptoid solution in cation-adjusted Mueller-Hinton broth was prepared by 2:1 serial dilution with a total volume of 50 µL per well. In experimental wells, 50 µL of bacterial inoculums (1 x 10^6 CFU/mL) were added to the peptoid solutions. Positive controls consisted of 50 µL inoculums added to 50 µL cation-adjusted Mueller-Hinton broth containing no peptoid, while negative controls contained only cation-adjusted Mueller-Hinton broth. […] Experiments were reproducible among three independent replicates, each consisting of two parallel trials.

erythrocytes = experiment: Hemolytic activity (HD10/HD50); format: cell-based
Description: Table 1 Characteristics of antimicrobial peptoids, screened for activity against B. subtilis and E. coli bacterial strains. | column: HD10 / HD50

NIH 3T3 cells = experiment: Metabolic activity, MTS assay; format: cell-based, mouse
Procedure: NIH 3T3 mouse fibroblast cells were cultured in complete Dulbecco’s Modified Eagle’s Media. A peptoid solution plate (100 µL per well) was prepared by serial dilution of aqueous peptoid stock solutions in Hank’s balanced salt solution. A day-old cell monolayer was washed thoroughly with Hank’s balanced salt solution and replenished with 100 µL Hank’s balanced salt solution per well. Peptoid solutions were transferred onto the day-old cell monolayers, which contained approximately 5000 cells per well. […] The average of six replicate trials is reported.

[1] = system: E. cloacae 218R Class C β-lactamase; experiment: microbe, parasite or virus in culture; conditions: 218R Class C β-lactamase
Procedure: (§1) The MICs of test agents were measured using a modified broth micro-dilution method in Difco Mueller Hinton medium, on a panel of bacterial pathogens that were both susceptible and resistant to common antibiotics (S1 File). Briefly, serial dilutions were performed in 0.01% acetic acid containing 0.2% bovine serum albumin at 10-fold the desired final concentration. Ten μL of the 10-fold concentrated test reagents were added to each well of a 96-well polypropylene microtitre plate containing 90 μL of Mueller Hinton media per well. Bacteria were added to the plate from an overnight culture at a final concentration of 2–7 x 10^5 CFU/mL and incubated overnight at 37°C. The MIC is defined as the concentration at which no growth was observed.
(§2) Screening of peptoid antimicrobial activity against a panel of multidrug resistant superbugs was done according to the protocol described in the manuscript. The bacterial strains used in this panel included; P. aeruginosa PAO1 strain H103 [1], P. maltophilia ATCC#13637, S. aureus ATCC#25923 [1], E. faecalis ATCC#29212 [2], and E. cloacae 218R, constitutively expressing Class C chromosomal β-lactamase, were from the Hancock lab strains collection. An MRSA clinical isolate was kindly provided by Anthony Chow (Vancouver General Hospital, Vancouver, Canada). Two Klebsiella pneumoniae and two E. coli clinical isolates expressing extended spectrum β-lactamases (ESBL) were kindly provided by George Zhanel (Health Sciences Centre, Winnipeg, Canada). Vancomycin-resistant clinical isolates of Enterococcus faecalis and E. faecium were obtained from Ana M. Paccagnella (BC Centre for Disease Control, Vancouver, Canada). Three clinical isolates (#9, #198 and #213) of multi-drug resistant P. aeruginosa, were kindly provided by Carlos Kiffer (University of São Paulo, Brazil). […] Three P. aeruginosa clinical isolates of the Liverpool epidemic strain (LES) (H1027, H1030 and LES400) were all kindly provided by Craig Winstanley (University of Liverpool, UK). […] All tested bacterial strains were categorized as biohazard level 2 pathogens.

E. coli 63103 (ESBL) = experiment: microbe, parasite or virus in culture; conditions: 63103 (ESBL)
Procedure: as §1, §2

E. coli 64771 (ESBL) = experiment: microbe, parasite or virus in culture; conditions: 64771 (ESBL)
Procedure: as §1, §2

E. faecalis ATCC29212 = experiment: microbe, parasite or virus in culture; conditions: ATCC29212
Procedure: as §1, §2

E. faecalis F43559 (VRE) = experiment: microbe, parasite or virus in culture; conditions: F43559 (VRE)
Procedure: as §1, §2

E. faecalis W61950 (VRE) = experiment: microbe, parasite or virus in culture; conditions: W61950 (VRE)
Procedure: as §1, §2

E. faecium T62764 (VRE) = experiment: microbe, parasite or virus in culture; conditions: T62764 (VRE)
Procedure: as §1, §2

E. faecium mic80 (VRE) = experiment: microbe, parasite or virus in culture; conditions: mic80 (VRE)
Procedure: as §1, §2

[2] = system: K. pneumonia 61962 (ESBL); experiment: microbe, parasite or virus in culture
Procedure: as §1, §2

[3] = system: K. pneumonia 63575 (ESBL); experiment: microbe, parasite or virus in culture
Procedure: as §1, §2

P. aeruginosa 198 (MDR) = experiment: microbe, parasite or virus in culture; conditions: 198 (MDR)
Procedure: as §1, §2

P. aeruginosa 213 (MDR) = experiment: microbe, parasite or virus in culture; conditions: 213 (MDR)
Procedure: as §1, §2

P. aeruginosa 9 (MDR) = experiment: microbe, parasite or virus in culture; conditions: 9 (MDR)
Procedure: as §1, §2

[4] = system: P. aeruginosa H1027 (MDR); experiment: microbe, parasite or virus in culture; conditions: H1027 (MDR)
Procedure: as §1, §2

[5] = system: P. aeruginosa H103 (wild type); experiment: microbe, parasite or virus in culture; conditions: H103 (wild type)
Procedure: as §1, §2

[6] = system: P. aeruginosa LES400 (MDR); experiment: microbe, parasite or virus in culture; conditions: LES400 (MDR)
Procedure: as §1, §2

P. maltophilia ATCC13637 = experiment: microbe, parasite or virus in culture; conditions: ATCC13637
Procedure: as §1, §2

S. aureus ATCC25923 = experiment: microbe, parasite or virus in culture; conditions: ATCC25923
Procedure: as §1, §2

S. aureus C623 (MRSA) = experiment: microbe, parasite or virus in culture; conditions: C623
Procedure: as §1, §2

[7] = system: P. aeruginosa H1030 (MDR); experiment: microbe, parasite or virus in culture; conditions: P. aeruginosa H1030 (MDR)
Procedure: as §1, §2

Structure (SMILES)	MIC E. coli (E. coli ATCC 35218)	HD10 (hemolytic activity) (erythrocytes)	HD50 (hemolytic activity) (erythrocytes)	ID50 (inhibitory dose, metabolic activity) (NIH 3T3 cells)	MIC [1]	MIC (E. coli 63103 (ESBL))	MIC (E. coli 64771 (ESBL))	MIC (E. faecalis ATCC29212)	MIC (E. faecalis F43559 (VRE))	MIC (E. faecalis W61950 (VRE))	MIC (E. faecium T62764 (VRE))	MIC (E. faecium mic80 (VRE))	MIC [2]	MIC [3]	MIC (P. aeruginosa 198 (MDR))	MIC (P. aeruginosa 213 (MDR))	MIC (P. aeruginosa 9 (MDR))	MIC [4]	MIC [5]	MIC [6]	other results
C[C@H](NCC(=O)N(CCCCN)CC(=O)N(CC(=O)N(CCCCN)CC(=O)N(CCCCN)CC(=O)N(CC(=O)N(CC(=O)N(CCCCN)CC(=O)N(CC(=O)N(CCCCN)CC(=O)N(CCCCN)CC(=O)N(CC(N)=O)[C@@H](C)c1ccccc1)[C@@H](C)c1ccccc1)[C@@H](C)c1ccccc1)[C@@H](C)c1ccccc1)[C@@H](C)c1ccccc1)c1ccccc1 [1B-NLys4,10, H-(Nspe-NLys-Nspe-NLys-NLys-Nspe)2-NH2] (H-[Nspe][Nlys][Nspe][Nlys][Nlys][Nspe][Nspe][Nlys][Nspe][Nlys][Nlys][Nspe]-NH2)	50 µM (≈ 87.7 µg/mL)	>200 / >200	>200 / >200	83 µM	32 µg/mL (≈ 18.3 µM)	128 µg/mL (≈ 73 µM)	32 µg/mL (≈ 18.3 µM)	256 µg/mL (≈ 146 µM)	256 µg/mL (≈ 146 µM)	256 µg/mL (≈ 146 µM)	16 µg/mL (≈ 9.13 µM)	32 µg/mL (≈ 18.3 µM)	256 µg/mL (≈ 146 µM)	128 µg/mL (≈ 73 µM)	32 µg/mL (≈ 18.3 µM)	16 µg/mL (≈ 9.13 µM)	128 µg/mL (≈ 73 µM)	0.25 µg/mL (≈ 0.143 µM)	4 µg/mL (≈ 2.28 µM)	16 µg/mL (≈ 9.13 µM)	MIC (P. maltophilia ATCC13637): 0.25 µg/mL (≈ 0.143 µM); MIC (S. aureus ATCC25923): 256 µg/mL (≈ 146 µM); MIC (S. aureus C623 (MRSA)): 256 µg/mL (≈ 146 µM)
CC(C)[C@H](C)N(CC(=O)N(CCCCN)CC(=O)N(CC(=O)N(CC(=O)N(CCCCN)CC(=O)N(CC(=O)N(CC(=O)N(CCCCN)CC(=O)N(CC(=O)N(CC(N)=O)[C@@H](C)c1ccccc1)[C@@H](C)c1ccccc1)[C@@H](C)C(C)C)[C@@H](C)C(C)C)[C@@H](C)c1ccccc1)[C@@H](C)c1ccccc1)C(=O)CN(C(=O)CNCCCCN)[C@@H](C)C(C)C [1-Nsdp2,3,8,9, H-(NLys-Nsdp-Nsdp-NLys-Nspe-Nspe)2-NH2] (H-[Nlys][X1][X1][Nlys][Nspe][Nspe][Nlys][X1][X1][Nlys][Nspe][Nspe]-NH2)	12.5 µM (≈ 21 µg/mL)	77	> 200	19 µM	8 µg/mL (≈ 4.75 µM)	16 µg/mL (≈ 9.51 µM)	8 µg/mL (≈ 4.75 µM)	4 µg/mL (≈ 2.38 µM)	16 µg/mL (≈ 9.51 µM)	16 µg/mL (≈ 9.51 µM)	1 µg/mL (≈ 0.594 µM)	4 µg/mL (≈ 2.38 µM)	32 µg/mL (≈ 19 µM)	32 µg/mL (≈ 19 µM)	32 µg/mL (≈ 19 µM)	8 µg/mL (≈ 4.75 µM)	256 µg/mL (≈ 152 µM)	2 µg/mL (≈ 1.19 µM)	8 µg/mL (≈ 4.75 µM)	8 µg/mL (≈ 4.75 µM)	MIC [7]: 8 µg/mL (≈ 4.75 µM); MIC (P. maltophilia ATCC13637): 1 µg/mL (≈ 0.594 µM); MIC (S. aureus ATCC25923): 4 µg/mL (≈ 2.38 µM); MIC (S. aureus C623 (MRSA)): 4 µg/mL (≈ 2.38 µM)
